Results as given in patent US11040101B2, “Nanoparticles for cancer therapy and diagnosis” (UCL BUSINESS PLC, priority 2019, dated 2021).

Target: cathepsin B (Homo sapiens, UniProt P07858)
Assay: Time-dependent fluorescence emission of ICG systems with or without cathepsin B
Type: biochemical
Conditions: after 24 h at 37° C. in PBS
Method: The equivalent ICG concentration in all systems was 6 μg/mL. Fluorescence emission spectra of these systems were acquired over the course of 48 h. The excitation wavelength of 740 nm was used to obtain the fluorescence spectra. For the afore-mentioned experiments, spectra and fluorescence intensities were obtained using a CLARIOstar® High Performance Monochromator Multimode microplate reader (BMG LABTECH, UK).

fluorescence emission of free ICG: suppressed
Compound: CC1(C)C(/C=C/C=C/C=C/C=C2\N(CCCCS(=O)(=O)O)c3ccc4ccccc4c3C2(C)C)=[N+](CCCCS(=O)(=O)[O-])c2ccc3ccccc3c21 [free ICG, Indocyanine green]
